According to patent publication US20010018182A1, “Methods of monitoring disease states and therapies using gene expression profiles” (Rosetta Inpharmatics, Inc., priority 1998, published 2001):

Assays:
[1] = system: yeast Saccharomyces cerevisiae; assay: growth defect of yeast on methotrexate drug exposure; type: cell-based; conditions: 100 μM titration of methotrexate
[2] = system: yeast gene YOL031C expression; assay: gene transcript array mRNA expression response to methotrexate titrations, Hill function fit; type: cell-based, Saccharomyces cerevisiae; conditions: least squares fit of YOL031C expression response (log10 expression ratio); exposure levels 3, 6, 25, 50, 100, 200 μM
Source text: FIG. 2 illustrates an example of perturbation response profiles measured at discrete protein activity levels of dihydrofolate reductase. Specifically, the figure illustrates mRNA expression levels of 30 genes of the yeast Saccharomyces cerevisiae that, of the approximately 6000 genes in the genome of this yeast, had the largest expression changes in response to six different titrations of the drug methotrexate, which is known to act primarily by disrupting the activity of dihydrofolate reductase. These gene expression level measurements were made with gene transcript arrays, as described in Section 5.4. The perturbation response profiles in FIG. 2 can be interpolated according to the methods disclosed in Section 5.3, below, to provide perturbation response profiles for any activity level of dihydrofolate reductase, and are thereby correlated to efficacy of the drug methotrexate.
In model fitting, the perturbation responses are interpolated by approximating each by a single parameterized function. An exemplary model-fitting function appropriate for approximating transcriptional state data is the Hill function, which has adjustable parameters a, u0, and n. [formula]
the adjustable parameters are selected independently for each cellular constituent of the perturbation response. Preferably, the adjustable parameters are selected so that for each cellular constituent the sum of the squares of the distances H(pl) from Rk(Pl) is minimized. This preferable parameter adjustment method is known in the art as a least squares fit of H( ) to Rk( ). Other possible model functions are based on polynomial fitting, for example by various known classes of polynomials.
Model fitting with a Hill function is illustrated with respect to FIGS. 2 and 3. As discussed, FIG. 2 illustrates an example of perturbation by methotrexate and identified by measurement. […]

CN(Cc1cnc2nc(N)nc(N)c2n1)c1ccc(C(=O)N[C@@H](CCC(=O)O)C(=O)O)cc1 [methotrexate]
growth defect [1]: 50%
Hill function parameter a [2]: −0.61
Hill function parameter log10(u0) [2]: 1.26
Hill function parameter n [2]: 2
